The source of these data is US20240308995A1, “O-GLYCOPROTEIN-2-ACETAMIDO-2-DEOXY-3-D-GLUCOPYRANOSIDASE INHIBITORS” (BIOGEN MA INC., priority 2018, published 2024).

pIC50: −log10 of the molar value. A value given as a limit tells only on which side of the number the result lay.

A short description of data set [1]: Rat Liver Microsome Stability Assay. The note with it: rat liver microsomes, 1 uM compound. The format is in vitro ADME. (Liver microsomes are a subcellular fraction often used to study metabolism.)
Another data set concerns P-gp (MDR1). The data set is described as follows: MDR1-MDCK Efflux Ratio Assay. The class given is in vitro ADME. To be noted: dog, MDCK-MDR1, pH 7.4, MDR1-MDCK cells, 2 hr, pH 7.4; read-out: MDR1-MDCK Efflux Ratio (B-A/A-B). On the procedure:
MDR1-MDCK cell monolayers were grown to confluence on microporous polyester membranes in 96-well Corning insert plates. The permeability assay buffer was Hanks' Balanced Salt Solution containing 10 mM HEPES at pH of 7.4. Loperamide (1 μM) was used as a positive control P-gp substrate. Propranolol and Bestatin (1 μM) were used as high and low permeability comparators, respectively. Test compounds or positive control P-gp substrate/permeability comprators were added to respective apical and basolateral chambers for bidirectional assessment of permeability. Receiver buffer (transport buffer supplemented with 1% bovine serum albumin) was added to respective receiver chambers. MDR1-MDCK cells were incubated with test compounds at 37° C. with 5% CO2 for 2 hr. Samples were collected from the donor chamber at both 0 and 120 minutes, and from the receiver chamber at 120 minutes. Test and control compound concentrations were determined using LC-MS/MS analysis. Each determination was performed in triplicate. The apparent permeability (Papp), efflux ratio and mass balance (percent recovery) were calculated as follows: [formula] where: dCr/dt is the cumulative concentration in the receiver compartment versus time in μM s^−1 Vr is the volume of the receiver compartment in cm^3 Vd is the volume of the donor compartment in cm^3 A is the area of the insert (0.143 cm^2 for 96-well insert) CE is the estimated experimental concentration (Time=0) of the dosing solution Cr^final is the concentration of the receiver at the end of the incubation period Cd^final is the concentration of the donor at the end of the incubation period.

For data set [2], the target named is Recombinant full length human OGA enzyme (Homo sapiens (Human), UniProt O60502). As to the kind of experiment: OGA Enzyme Inhibition Biochemical Assay. The note with it: 1 nM OGA, 100 μM 4-MUGlcNAc, pH 6.4. Here is the method: Recombinant full length human OGA enzyme was purchased from Origene. 4-MUGlcNAc substrate was purchased from Sigma. All other reagents were purchased from Sigma or Fisher. Assay buffer consists of the McIlvaine buffer system, pH 6.4 (0.2M Na2HPO4 mixed with 0.1M citric acid) and 0.01% BSA. […] Reactions were incubated for 90 minutes at room temperature and quenched with 40 μl of 3M glycine, pH 10 and read on a Perkin Elmer Envision plate reader (Ex: 355 nm/Em: 460 nm). Compounds were tested with a 10-point dose-response starting from 20 μM with a 4-fold dilution. Data was fit using GraphPad Prism using a 4-parameter fit with variable slope.

Data set [3] has as its target OGA (S400 O-GLCNAC), HEK-293T cells transfected with Tau-V5 (Homo sapiens (Human), UniProt O60502). As to the kind of experiment: Cellular OGA-Tau MSD Assay. The format is cell-based. On the procedure:
HEK-293T cells were transfected with […] and Tau-V5 plasmids using Lipofectamine and grown overnight. Next day, the cells were collected and re-plated at 1×10^5 cells per well in 96 well plates. Cells were incubated for 4 hr at 37° C., before compounds were added at 1 uM, with 3-fold dilutions in a 10-point titration. Cell plates were incubated with compounds overnight at 37° C. The next day media was removed from wells by gentle aspiration and 120 ul of 1× Cell Lysis buffer mixed with protease and phosphatase cocktail added to each well. A freeze thaw was performed at -80° C., then mixed before transferring 50 ul to MSD plates coated with V5-tag antibody to capture Tau. MSD Plates were incubated overnight at 4° C., on a plate shaker. The following day, plates were washed and incubated with Tau-[…]-GlcNAc antibody for 2 hr and then developed with rabbit Sulfo-tag antibody. Final read out was carried out on an MSD 600 reader. The data was analyzed using Graph Pad or Genedata, the data was normalized and % activity versus log of compound concentration was plotted. The IC50 values were obtained from a 4 parameter fit.

The mark [4] stands for this setting: HEK-293T cells, Tau-S400-GlcNAc MSD readout.

Recombinant full length human OGA enzyme, sequence (O60502 whole entry): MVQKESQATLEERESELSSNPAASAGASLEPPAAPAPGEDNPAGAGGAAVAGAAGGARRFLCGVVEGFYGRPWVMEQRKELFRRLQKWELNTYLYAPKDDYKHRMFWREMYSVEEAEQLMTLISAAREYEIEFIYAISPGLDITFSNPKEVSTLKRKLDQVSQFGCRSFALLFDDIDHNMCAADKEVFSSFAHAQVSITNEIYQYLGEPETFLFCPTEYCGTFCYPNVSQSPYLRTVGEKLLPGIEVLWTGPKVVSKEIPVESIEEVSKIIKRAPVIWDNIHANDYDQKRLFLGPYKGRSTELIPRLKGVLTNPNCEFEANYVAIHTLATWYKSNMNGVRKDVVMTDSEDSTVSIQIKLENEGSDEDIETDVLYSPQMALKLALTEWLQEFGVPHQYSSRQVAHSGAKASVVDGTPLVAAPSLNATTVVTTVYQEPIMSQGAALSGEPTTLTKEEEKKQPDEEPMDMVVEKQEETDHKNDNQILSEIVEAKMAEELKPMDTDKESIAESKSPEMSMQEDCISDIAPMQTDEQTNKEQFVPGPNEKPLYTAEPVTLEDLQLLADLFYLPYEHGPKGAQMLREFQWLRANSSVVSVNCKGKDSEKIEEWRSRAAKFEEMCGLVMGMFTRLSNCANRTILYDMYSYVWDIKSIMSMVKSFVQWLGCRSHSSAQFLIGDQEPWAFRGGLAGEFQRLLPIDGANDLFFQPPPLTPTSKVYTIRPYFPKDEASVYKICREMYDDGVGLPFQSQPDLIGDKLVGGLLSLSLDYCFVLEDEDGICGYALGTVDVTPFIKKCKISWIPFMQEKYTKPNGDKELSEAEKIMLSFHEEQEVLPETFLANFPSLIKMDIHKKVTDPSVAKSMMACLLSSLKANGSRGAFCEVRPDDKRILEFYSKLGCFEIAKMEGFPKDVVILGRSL
OGA (S400 O-GLCNAC), HEK-293T cells transfected with Tau-V5, sequence (O60502 whole entry): as above

A word on the pIC50: it is −log10 of the IC50, conventionally taken in molar units. Regarding `[2H]C([2H])([2H])Oc1cc(O[C@@H]2C[C@H](C)N(Cc3cnc(NC(C)=O)s3)C2)ncn1` (single isomer, unassigned) [Example 1-154], the “RLM % Qh (%)” value in data set [1] came out at 27%. For the same molecule, the efflux ratio at 2 h in the data set with P-gp (MDR1) is 4.3. Besides, the pIC50 in data set [2] was more than 9.00; in data set [3] (setting [4]), 8.70.

Consider `[2H]C([2H])([2H])C(=O)Nc1ncc(CN2C[C@H](Oc3cc(OC)ncn3)C[C@@H]2C)s1` (single isomer, unassigned) [Example 1-156], for which the “RLM % Qh (%)” value in data set [1] is listed as 35%. The efflux ratio at 2 h in the data set with P-gp (MDR1) turned out to be 5.2. For the same molecule, the pIC50 is more than 9.00 in data set [2] and 8.70 in data set [3] (setting [4]).

Regarding `[2H]C(c1cnc(NC(C)=O)s1)N1C[C@H](Oc2cc(OC)ncn2)C[C@@H]1C` (single isomer, unassigned) [Example 1-158], the “RLM % Qh (%)” value in data set [1] was 29%. The efflux ratio at 2 h in the data set on P-gp (MDR1) was 5.2. The pIC50 in data set [2] is more than 9.00; in data set [3] (setting [4]), 8.52.

In the case of `[2H]C([2H])(c1cnc(NC(C)=O)s1)N1C[C@H](Oc2cc(OC)ncn2)C[C@@H]1C` (single isomer, unassigned) [Example 1-160], in data set [1], the “RLM % Qh (%)” value is recorded as 29%. The efflux ratio at 2 h with P-gp (MDR1) is 4.6. The values for the pIC50 in data set [2] and in data set [3] (setting [4]) were more than 9.00 and 8.52, respectively.

For the molecule `[2H]c1nc(NC(C)=O)sc1CN1C[C@H](Oc2cc(OC)ncn2)C[C@@H]1C` (single isomer, unassigned) [Example 1-162], in data set [1], the “RLM % Qh (%)” value was determined as 35%. The efflux ratio at 2 h in the data set on P-gp (MDR1) worked out at 6.2. Further, the pIC50 in data set [2] was more than 9.00; in data set [3] (setting [4]) it was 7.72.

With `[2H][C@@]1(Oc2cc(OC)ncn2)C[C@H](C)N(Cc2cnc(NC(C)=O)s2)C1` (single isomer, unassigned) [Example 1-163], in data set [1], the “RLM % Qh (%)” value stood at 30%. In addition, the efflux ratio at 2 h in the data set on P-gp (MDR1) worked out at 5.9. Moreover, the pIC50 is more than 9.00 in data set [2] and 8.40 in data set [3] (setting [4]).

For `CC(=O)Nc1ncc(CN2C[C@H](Oc3cc(Cl)ncn3)C[C@@H]2C)s1` [Example 1-21, N-(5-(((2S,4R)-4-((6-chloropyrimidin-4-yl)oxy)-2-methylpyrrolidin-1-yl)methyl)thiazol-2-yl)acetamide], in the data set with P-gp (MDR1), the efflux ratio at 2 h amounted to 3.8. Besides, the negative logarithm of the IC50 (pIC50) in data set [2] was more than 9.00; in data set [3] (setting [4]), 8.15; in data set [3] (repeated assay, value marked with asterisk (*)), 8.10.

As for `CC(=O)Nc1nc(F)c(CN2C[C@@H](Oc3cc(C)nc(C)c3)CC[C@@H]2C)s1` [Example 1-56, N-(5-(((2S,5S)-5-((2,6-dimethylpyridin-4-yl)oxy)-2-methylpiperidin-1-yl)methyl)-4-fluorothiazol-2-yl)acetamide], in data set [1], the “RLM % Qh (%)” value came to 91%. Also, the efflux ratio at 2 h in the data set on P-gp (MDR1) worked out at 21.8. Further, the pIC50 in data set [2] is more than 9.00.

For `CC(=O)Nc1ncc(CN2C[C@H](Oc3cc(OCC(F)(F)F)ncn3)C[C@@H]2C)s1` [Example 1-77], the “RLM % Qh (%)” value in data set [1] was 58%. The figures for the pIC50 in data set [2] and in data set [3] (setting [4]) were more than 9.00 and 8.00, respectively.

Take `CC(=O)Nc1ncc(CN2C[C@H](Oc3cc(C(F)(F)F)ncn3)C[C@@H]2C)s1` [Example 1-79, N-(5-(((2S,4R)-2-methyl-4-((6-(trifluoromethyl)pyrimidin-4-yl)oxy)pyrrolidin-1-yl)methyl)thiazol-2-yl)acetamide]: the pIC50 is 7.96 in data set [2] and 7.39 in data set [3] (setting [4]).

As for `CC(=O)Nc1ncc(CN2C[C@H](Oc3ncc(C)nc3C)C[C@@H]2C)s1` [Example 1-81, N-(5-(((2S,4R)-4-((3,5-dimethylpyrazin-2-yl)oxy)-2-methylpyrrolidin-1-yl)methyl)thiazol-2-yl)acetamide], the “RLM % Qh (%)” value in data set [1] is 74%. In addition, the efflux ratio at 2 h in the data set with P-gp (MDR1) turned out to be 7.3. Besides, in data set [2], the pIC50 is 8.08.

Turning to `COc1ccc(O[C@@H]2C[C@H](C)N(Cc3sc(NC(C)=O)nc3F)C2)nn1` [Example 1-84, N-(4-fluoro-5-(((2S,4R)-4-((6-methoxypyridazin-3-yl)oxy)-2-methylpyrrolidin-1-yl)methyl)thiazol-2-yl)acetamide], the pIC50 in data set [2] was more than 9.00; in data set [3] (setting [4]), 9.00.

`COc1cc(O[C@@H]2C[C@H](C)N(Cc3sc(NC(C)=O)nc3F)C2)ccn1` [Example 1-100, N-(4-fluoro-5-(((2S,4R)-4-((2-methoxypyridin-4-yl)oxy)-2-methylpyrrolidin-1-yl)methyl)thiazol-2-yl)acetamide]: the pIC50 in data set [2] is more than 9.00; in data set [3] (setting [4]), 9.00.

For the molecule `CC(=O)Nc1nc(F)c(CN2C[C@H](Oc3ncc(C)nc3C)C[C@@H]2C)s1` [Example 1-106, N-(5-(((2S,4R)-4-((3,5-dimethylpyrazin-2-yl)oxy)-2-methylpyrrolidin-1-yl)methyl)-4-fluorothiazol-2-yl)acetamide], in data set [1], the “RLM % Qh (%)” value was determined as 86%. Moreover, the efflux ratio at 2 h in the data set on P-gp (MDR1) turned out to be 4.6. The pIC50 in data set [2] is 8.62.

Regarding `CC(=O)Nc1nc(F)c(CN2C[C@H](Oc3cc(C)ncc3C)C[C@@H]2C)s1` [Example 1-107, N-(5-(((2S,4R)-4-((2,5-dimethylpyridin-4-yl)oxy)-2-methylpyrrolidin-1-yl)methyl)-4-fluorothiazol-2-yl)acetamide], the “RLM % Qh (%)” value in data set [1] came to 58%. Also, the efflux ratio at 2 h with P-gp (MDR1) was 17.2. Further, the pIC50 in data set [2] is 8.77.

As for `CC(=O)Nc1nc(F)c(CN2C[C@H](Oc3ccc(F)nn3)C[C@@H]2C)s1` [Example 1-111, N-(4-fluoro-5-(((2S,4R)-4-((6-fluoropyridazin-3-yl)oxy)-2-methylpyrrolidin-1-yl)methyl)thiazol-2-yl)acetamide], the pIC50 was more than 9.00 in data set [2] and 9.00 in data set [3] (setting [4]).

As to `CC(=O)Nc1ncc(CN2C[C@H](Oc3cc(OC4CCC4)ncn3)C[C@@H]2C)s1` [Example 1-121, N-(5-(((2S,4R)-4-((6-cyclobutoxypyrimidin-4-yl)oxy)-2-methylpyrrolidin-1-yl)methyl)thiazol-2-yl)acetamide], the results for the pIC50 in data set [2] and in data set [3] (setting [4]) were more than 9.00 and 8.52, respectively.

Turning to `CC(=O)Nc1ncc(CN2C[C@H](Oc3cc(OC4CN(C)C4)ncn3)C[C@@H]2C)s1` [Example 1-125, N-(5-(((2S,4R)-2-methyl-4-((6-((1-methylazetidin-3-yl)oxy)pyrimidin-4-yl)oxy)pyrrolidin-1-yl)methyl)thiazol-2-yl)acetamide], in data set [1], the “RLM % Qh (%)” value is on record as 54%. Also, the efflux ratio at 2 h in the data set with P-gp (MDR1) is 1. Moreover, in data set [2], the pIC50 is 8.85.

`CNc1cc(O[C@@H]2C[C@H](C)N(Cc3cnc(NC(C)=O)s3)C2)ncn1` [Example 1-137, N-(5-(((2S,4R)-2-methyl-4-((6-(methylamino)pyrimidin-4-yl)oxy)pyrrolidin-1-yl)methyl)thiazol-2-yl)acetamide]: the pIC50 is more than 9.00 in data set [2] and 8.70 in data set [3] (setting [4]).

Regarding `CC(=O)Nc1nc(F)c(CN2C[C@H](Oc3cc(OC4CN(C)C4)ncn3)C[C@@H]2C)s1` [Example 1-141, N-(4-fluoro-5-(((2S,4R)-2-methyl-4-((6-((1-methylazetidin-3-yl)oxy)pyrimidin-4-yl)oxy)pyrrolidin-1-yl)methyl)thiazol-2-yl)acetamide], the pIC50 is 9.00 in data set [2] and 8.15 in data set [3] (setting [4]).

With `[2H][C@]1(Oc2cc(OC)ncn2)C[C@H](C)N(Cc2sc(NC(C)=O)nc2F)C1` [Example 1-166, N-(4-fluoro-5-(((2S,4S)-4-((6-methoxypyrimidin-4-yl)oxy)-2-methylpyrrolidin-1-yl-4-d)methyl)thiazol-2-yl)acetamide], the pIC50 in data set [2] is 7.89; in data set [3] (setting [4]), 7.96.
